# Data: PubChem BioAssay (NCI)
#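 48-hour exposure; five concentrations; linearly interpolated endpoints. The concentration for full growth arrest is given as TGI.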
# Columns and labels:
# Test in all cases: DTP human tumour cell line panel, 48 h
# RPMI-8226 leukemia = system: RPMI-8226 leukemia
# RXF 393 renal = system: RXF 393 renal
# MALME-3M melanoma = system: MALME-3M melanoma
# HCT-116 colon = system: HCT-116 colon
# CCRF-CEM leukemia = system: CCRF-CEM leukemia
# OVCAR-4 ovarian = system: OVCAR-4 ovarian
# DMS 114 small cell lung = system: DMS 114 small cell lung
# HOP-18 NSCLC = system: HOP-18 NSCLC
# SK-MEL-2 melanoma = system: SK-MEL-2 melanoma
# OVCAR-5 ovarian = system: OVCAR-5 ovarian
# LOX IMVI melanoma = system: LOX IMVI melanoma
# UO-31 renal = system: UO-31 renal
# U251 CNS = system: U251 CNS
# 786-0 renal = system: 786-0 renal
# K-562 leukemia = system: K-562 leukemia
# NCI-H460 lung = system: NCI-H460 lung
# SNB-75 CNS = system: SNB-75 CNS
# DMS 273 small cell lung = system: DMS 273 small cell lung
# HT29 colon = system: HT29 colon
# SNB-78 CNS = system: SNB-78 CNS
# M14 melanoma = system: M14 melanoma
# ACHN renal = system: ACHN renal
# UACC-62 melanoma = system: UACC-62 melanoma
# XF 498 CNS = system: XF 498 CNS
# IGROV1 ovarian = system: IGROV1 ovarian
# A498 renal = system: A498 renal
# SK-OV-3 ovarian = system: SK-OV-3 ovarian
# HCT-15 colon = system: HCT-15 colon
# HL-60(TB) leukemia = system: HL-60(TB) leukemia
# OVCAR-8 ovarian = system: OVCAR-8 ovarian
# NCI-H522 lung = system: NCI-H522 lung
# SF-268 CNS = system: SF-268 CNS
# RXF-631 renal = system: RXF-631 renal
# SW-620 colon = system: SW-620 colon
# COLO 205 colon = system: COLO 205 colon
# TK-10 renal = system: TK-10 renal
# UACC-257 melanoma = system: UACC-257 melanoma
# SNB-19 CNS = system: SNB-19 CNS
# NCI-H23 lung = system: NCI-H23 lung
# OVCAR-3 ovarian = system: OVCAR-3 ovarian
# LXFL 529 NSCLC = system: LXFL 529 NSCLC
# A549 NSCLC = system: A549 NSCLC
# HOP-62 NSCLC = system: HOP-62 NSCLC
# KM20L2 colon = system: KM20L2 colon
# EKVX NSCLC = system: EKVX NSCLC
# SK-MEL-5 melanoma = system: SK-MEL-5 melanoma
# SK-MEL-28 melanoma = system: SK-MEL-28 melanoma
# SF-539 CNS = system: SF-539 CNS
# DLD-1 colon = system: DLD-1 colon
# SN12C renal = system: SN12C renal
# M19-MEL melanoma = system: M19-MEL melanoma
# KM12 colon = system: KM12 colon
# HOP-92 NSCLC = system: HOP-92 NSCLC
# MOLT-4 leukemia = system: MOLT-4 leukemia
# SF-295 CNS = system: SF-295 CNS
# NCI-H226 lung = system: NCI-H226 lung
# HCC-2998 colon = system: HCC-2998 colon
# CAKI-1 renal = system: CAKI-1 renal
structure (smiles),measurement,setting,value
NC(N)=NS(=O)(=O)c1ccc(NC(=O)c2cccc3c(Nc4ccc(S(=O)(=O)N=C(N)N)cc4)c4ccccc4nc23)cc1,TGI,RPMI-8226 leukemia,> 100 µM
same,TGI,RXF 393 renal,> 100 µM
same,TGI,MALME-3M melanoma,> 100 µM
same,TGI,HCT-116 colon,> 100 µM
same,TGI,CCRF-CEM leukemia,> 100 µM
same,TGI,OVCAR-4 ovarian,> 100 µM
same,TGI,DMS 114 small cell lung,> 100 µM
same,TGI,HOP-18 NSCLC,> 100 µM
same,TGI,SK-MEL-2 melanoma,> 100 µM
same,TGI,OVCAR-5 ovarian,> 100 µM
same,TGI,LOX IMVI melanoma,> 100 µM
same,TGI,UO-31 renal,> 100 µM
same,TGI,U251 CNS,> 100 µM
same,TGI,786-0 renal,> 100 µM
same,TGI,K-562 leukemia,> 100 µM
same,TGI,NCI-H460 lung,> 100 µM
same,TGI,SNB-75 CNS,81.5 µM
same,TGI,DMS 273 small cell lung,> 100 µM
same,TGI,HT29 colon,> 100 µM
same,TGI,SNB-78 CNS,> 100 µM
same,TGI,M14 melanoma,> 100 µM
same,TGI,ACHN renal,> 100 µM
same,TGI,UACC-62 melanoma,> 100 µM
same,TGI,XF 498 CNS,> 100 µM
same,TGI,IGROV1 ovarian,> 100 µM
same,TGI,A498 renal,> 100 µM
same,TGI,SK-OV-3 ovarian,> 100 µM
same,TGI,HCT-15 colon,> 100 µM
same,TGI,HL-60(TB) leukemia,> 100 µM
same,TGI,OVCAR-8 ovarian,> 100 µM
same,TGI,NCI-H522 lung,> 100 µM
same,TGI,SF-268 CNS,> 100 µM
same,TGI,RXF-631 renal,> 100 µM
same,TGI,SW-620 colon,> 100 µM
same,TGI,COLO 205 colon,> 100 µM
same,TGI,TK-10 renal,> 100 µM
same,TGI,UACC-257 melanoma,> 100 µM
same,TGI,SNB-19 CNS,> 100 µM
same,TGI,NCI-H23 lung,> 100 µM
same,TGI,OVCAR-3 ovarian,> 100 µM
same,TGI,LXFL 529 NSCLC,> 100 µM
same,TGI,A549 NSCLC,> 100 µM
same,TGI,HOP-62 NSCLC,> 100 µM
same,TGI,KM20L2 colon,> 100 µM
same,TGI,EKVX NSCLC,> 100 µM
same,TGI,SK-MEL-5 melanoma,> 100 µM
same,TGI,SK-MEL-28 melanoma,> 100 µM
same,TGI,SF-539 CNS,> 100 µM
same,TGI,DLD-1 colon,> 100 µM
same,TGI,SN12C renal,> 100 µM
same,TGI,M19-MEL melanoma,> 100 µM
same,TGI,KM12 colon,> 100 µM
same,TGI,HOP-92 NSCLC,> 100 µM
same,TGI,MOLT-4 leukemia,> 100 µM
same,TGI,SF-295 CNS,> 100 µM
COc1cc(Nc2cnc3ccc(N)cc3n2)cc(OC)c1OC,TGI,RPMI-8226 leukemia,42.2 µM
same,TGI,RXF 393 renal,98.5 µM
same,TGI,MALME-3M melanoma,> 100 µM
same,TGI,HCT-116 colon,> 100 µM
same,TGI,CCRF-CEM leukemia,> 56.6 µM
same,TGI,OVCAR-4 ovarian,> 100 µM
same,TGI,DMS 114 small cell lung,> 100 µM
same,TGI,HOP-18 NSCLC,> 100 µM
same,TGI,SK-MEL-2 melanoma,> 100 µM
same,TGI,OVCAR-5 ovarian,> 100 µM
same,TGI,LOX IMVI melanoma,> 82.8 µM
same,TGI,NCI-H226 lung,> 100 µM
same,TGI,UO-31 renal,> 100 µM
same,TGI,U251 CNS,> 100 µM
same,TGI,786-0 renal,> 100 µM
same,TGI,K-562 leukemia,> 56.6 µM
same,TGI,NCI-H460 lung,> 100 µM
same,TGI,SNB-75 CNS,> 100 µM
same,TGI,DMS 273 small cell lung,> 100 µM
same,TGI,HT29 colon,> 100 µM
same,TGI,SNB-78 CNS,> 100 µM
same,TGI,M14 melanoma,> 100 µM
same,TGI,ACHN renal,> 100 µM
same,TGI,UACC-62 melanoma,> 100 µM
same,TGI,XF 498 CNS,> 100 µM
same,TGI,IGROV1 ovarian,> 100 µM
same,TGI,HCC-2998 colon,> 100 µM
same,TGI,A498 renal,> 100 µM
same,TGI,SK-OV-3 ovarian,> 100 µM
same,TGI,HCT-15 colon,> 100 µM
same,TGI,HL-60(TB) leukemia,> 52.1 µM
same,TGI,OVCAR-8 ovarian,> 100 µM
same,TGI,NCI-H522 lung,> 100 µM
same,TGI,SF-268 CNS,> 100 µM
same,TGI,RXF-631 renal,> 100 µM
same,TGI,SW-620 colon,> 100 µM
same,TGI,COLO 205 colon,> 100 µM
same,TGI,TK-10 renal,> 100 µM
same,TGI,UACC-257 melanoma,> 100 µM
same,TGI,SNB-19 CNS,> 100 µM
same,TGI,NCI-H23 lung,> 100 µM
same,TGI,OVCAR-3 ovarian,> 86.6 µM
same,TGI,LXFL 529 NSCLC,> 100 µM
same,TGI,A549 NSCLC,> 100 µM
same,TGI,HOP-62 NSCLC,71.1 µM
same,TGI,KM20L2 colon,> 100 µM
same,TGI,EKVX NSCLC,> 100 µM
same,TGI,SK-MEL-5 melanoma,> 100 µM
same,TGI,SK-MEL-28 melanoma,> 100 µM
same,TGI,DLD-1 colon,> 33.6 µM
same,TGI,SN12C renal,> 100 µM
same,TGI,M19-MEL melanoma,> 100 µM
same,TGI,KM12 colon,> 100 µM
same,TGI,HOP-92 NSCLC,> 100 µM
same,TGI,MOLT-4 leukemia,> 100 µM
same,TGI,SF-295 CNS,> 100 µM
same,TGI,CAKI-1 renal,> 100 µM
